Laboratory results from ChEMBL document CHEMBL2040726, “The effects of aminoguanidine on retinopathy in STZ-induced diabetic rats” (Bioorg Med Chem Lett, 2012).
The source made the active and inactive calls. The rule behind the calls is not given here.

Assays:
Rattus norvegicus [1] = assay: Toxicity in normal Sprague-Dawley rat assessed as retinal advanced glycated end products positive area at 50 mg/kg/day administered with drinking water after 6 months by immunohistochemistry analysis (reference value: 0.75 +/- 0.94%); format: organism-based; details: in vivo
Rattus norvegicus [2] = assay: Toxicity in normal Sprague-Dawley rat assessed as reduction of body weight at 50 mg/kg/day administered with drinking water after 3 months (reference value: 561.00 +/- 32.04 g); format: organism-based; details: in vivo
Rattus norvegicus [3] = assay: Antidiabetic activity in Sprague-Dawley rat streptozotocin-induced diabetic model assessed as reduction of fasting blood glucose level at 50 mg/kg/day administered with drinking water after 6 months (reference value: 20.20 +/- 5.51 mmol/L); format: functional
Rattus norvegicus [4] = assay: Toxicity in normal Sprague-Dawley rat assessed as effect on retinal endothelial cell count at 50 mg/kg/day administered with drinking water after 3 months by hematoxylin and eosin staining; format: organism-based; details: in vivo
Rattus norvegicus [5] = assay: Toxicity in normal Sprague-Dawley rat assessed as effect on ratio of retinal endothelial cell count to pericyte cell count at 50 mg/kg/day administered with drinking water after 6 months by hematoxylin and eosin staining (reference value: 3.58 +/- 0.61); format: organism-based; details: in vivo
Rattus norvegicus [6] = assay: Antiretinopathic activity in Sprague-Dawley rat streptozotocin-induced diabetic model assessed as effect on retinal endothelial cell count at 50 mg/kg/day administered with drinking water after 6 months by hematoxylin and eosin staining; format: functional, organism-based
Rattus norvegicus [7] = assay: Antiretinopathic activity in Sprague-Dawley rat streptozotocin-induced diabetic model assessed as increase of retinal electron density of basement membrane at 50 mg/kg/day administered with drinking water after 6 months by transmission electron microscopic analysis; format: functional, organism-based
Rattus norvegicus [8] = assay: Antiretinopathic activity in Sprague-Dawley rat streptozotocin-induced diabetic model assessed as effect on retinal endothelial cell count at 50 mg/kg/day administered with drinking water after 3 months by hematoxylin and eosin staining; format: functional, organism-based
Rattus norvegicus [9] = assay: Effect on fasting blood glucose level in normal Sprague-Dawley rat 50 mg/kg/day administered with drinking water after 3 months (reference value: 5.68 +/- 0.96 mmol/L); format: functional
Rattus norvegicus [10] = assay: Toxicity in normal Sprague-Dawley rat assessed as effect on retinal pericyte cell count at 50 mg/kg/day administered with drinking water after 3 months by hematoxylin and eosin staining; format: organism-based; details: in vivo
Rattus norvegicus [11] = assay: Antidiabetic activity in Sprague-Dawley rat streptozotocin-induced diabetic model assessed as reduction of fasting blood glucose level at 50 mg/kg/day administered with drinking water after 3 months (reference value: 20.99 +/- 4.13 mmol/L); format: functional
Rattus norvegicus [12] = assay: Antidiabetic activity in Sprague-Dawley rat streptozotocin-induced diabetic model assessed as reduction of body weight at 50 mg/kg/day administered with drinking water after 3 months (reference value: 206.00 +/- 52.59 g); format: functional
Rattus norvegicus [13] = assay: Toxicity in normal Sprague-Dawley rat assessed as effect on retinal endothelial cell count at 50 mg/kg/day administered with drinking water after 6 months by hematoxylin and eosin staining; format: organism-based; details: in vivo
Rattus norvegicus [14] = assay: Toxicity in normal Sprague-Dawley rat assessed as effect on ratio of retinal endothelial cell count to pericyte cell count at 50 mg/kg/day administered with drinking water after 3 months by hematoxylin and eosin staining (reference value: 2.89 +/- 0.76); format: organism-based; details: in vivo
Rattus norvegicus [15] = assay: Antiretinopathic activity in Sprague-Dawley rat streptozotocin-induced diabetic model assessed as reduction of retinal advanced glycated end products positive area at 50 mg/kg/day administered with drinking water after 3 months by immunohistochemistry analysis (reference value: 69.20 +/- 10.75%); format: functional; set-up: scale not given: the % may be the effect or the level left
Rattus norvegicus [16] = assay: Antiretinopathic activity in Sprague-Dawley rat streptozotocin-induced diabetic model assessed as ratio of retinal endothelial cell count to pericyte cell count at 50 mg/kg/day administered with drinking water after 3 months by hematoxylin and eosin staining (reference value: 3.25 +/- 0.27); format: functional
Rattus norvegicus [17] = assay: Antiretinopathic activity in Sprague-Dawley rat streptozotocin-induced diabetic model assessed as ratio of retinal endothelial cell count to pericyte cell count at 50 mg/kg/day administered with drinking water after 6 months by hematoxylin and eosin staining (reference value: 10.91 +/- 3.34); format: functional
Rattus norvegicus [18] = assay: Antidiabetic activity in Sprague-Dawley rat streptozotocin-induced diabetic model assessed as reduction of body weight at 50 mg/kg/day administered with drinking water after 6 months (reference value: 254.50 +/- 123.03 g); format: functional
Rattus norvegicus [19] = assay: Antiretinopathic activity in Sprague-Dawley rat streptozotocin-induced diabetic model assessed as effect on retinal pericyte cell count at 50 mg/kg/day administered with drinking water after 6 months by hematoxylin and eosin staining; format: functional, organism-based
Rattus norvegicus [20] = assay: Effect on fasting blood glucose level in normal Sprague-Dawley rat 50 mg/kg/day administered with drinking water after 6 months (reference value: 5.51 +/- 1.06 mmol/L); format: functional
Rattus norvegicus [21] = assay: Antiretinopathic activity in Sprague-Dawley rat streptozotocin-induced diabetic model assessed as reduction of retinal advanced glycated end products positive area at 50 mg/kg/day administered with drinking water after 6 months by immunohistochemistry analysis (reference value: 78.70 +/- 7.11%); format: functional; set-up: scale not given: the % may be the effect or the level left
Rattus norvegicus [22] = assay: Toxicity in normal Sprague-Dawley rat assessed as effect on retinal pericyte cell count at 50 mg/kg/day administered with drinking water after 6 months by hematoxylin and eosin staining; format: organism-based; details: in vivo
Rattus norvegicus [23] = assay: Antiretinopathic activity in Sprague-Dawley rat streptozotocin-induced diabetic model assessed as effect on retinal pericyte cell count at 50 mg/kg/day administered with drinking water after 3 months by hematoxylin and eosin staining; format: functional, organism-based
Rattus norvegicus [24] = assay: Toxicity in normal Sprague-Dawley rat assessed as retinal advanced glycated end products positive area at 50 mg/kg/day administered with drinking water after 3 months by immunohistochemistry analysis (reference value: 0.64 +/- 0.87%); format: organism-based; details: in vivo
Rattus norvegicus [25] = assay: Antiretinopathic activity in Sprague-Dawley rat streptozotocin-induced diabetic model assessed as swollen of retinal pericyte mitochondria and endothelial cells at 50 mg/kg/day administered with drinking water after 6 months by transmission electron microscopic analysis; format: functional, organism-based; details: Endothelial cell
Rattus norvegicus [26] = assay: Toxicity in normal Sprague-Dawley rat assessed as reduction of body weight at 50 mg/kg/day administered with drinking water after 6 months (reference value: 547.50 +/- 36.23 g); format: organism-based; details: in vivo

Q: What does the source list for `N=C(N)NN` [PIMAGEDINE]?
A: Activity (Rattus norvegicus [1]): 3.27%; Activity (Rattus norvegicus [2]): 536.5 g; Activity (Rattus norvegicus [3]): 21.74 mmol/L; Activity (Rattus norvegicus [4]): Non-toxic; Ratio (Rattus norvegicus [5]): 3.46; Activity (Rattus norvegicus [6]): inactive; Activity (Rattus norvegicus [7]): inactive; Activity (Rattus norvegicus [8]): inactive; Activity (Rattus norvegicus [9]): 5.23 mmol/L; Activity (Rattus norvegicus [10]): Non-toxic; Activity (Rattus norvegicus [11]): 21.89 mmol/L; Activity (Rattus norvegicus [12]): 219.5 g; Activity (Rattus norvegicus [13]): Non-toxic; Ratio (Rattus norvegicus [14]): 2.95; Activity (Rattus norvegicus [15]): 12.71%; Ratio (Rattus norvegicus [16]): 3.06; Ratio (Rattus norvegicus [17]): 3.71; Activity (Rattus norvegicus [18]): 284.5 g; Activity (Rattus norvegicus [19]): inactive; Activity (Rattus norvegicus [20]): 5.07 mmol/L; Activity (Rattus norvegicus [21]): 9.16%; Activity (Rattus norvegicus [22]): Non-toxic; Activity (Rattus norvegicus [23]): inactive; Activity (Rattus norvegicus [24]): 1.33%; Activity (Rattus norvegicus [25]): Active; Activity (Rattus norvegicus [26]): 553 g
